# From patent publication US12527849B2, “Apparatus for determining administration form of a composition of an engineered virus-based nanoparticle for a treatment of an autoimmune condition” (Diamante Srl, priority 2021, dated 2026)
# Assays:
# TGF-β1 = experiment: Cytokine ELISA in CIA mice, day 60: TGF-β1; assay type: in vivo; conditions: serum pooled from five CIA mice
# From the text: With continued reference to FIG. 1, in some embodiments, administration 116 may be done to an animal. As a non-limiting example, the animal may include a mouse, a fish, a rabbit, human, and the like. As a non-limiting example, administration 116 of composition of the engineered virus-based nanoparticle for a treatment of an autoimmune condition may be done to dilute, brown, and non-agouti (DBA) mice based on their susceptibility to collagen-induced arthritis (CIA). Female DBA/1 mice 6 to 8 weeks of age may be maintained under specific pathogen-free conditions. CIA may be induced by the intradermal tail base injection of 100 μg of chicken type II collagen (Sigma-Aldrich) as previously described. Five mice per group may be immunized on days 0 and 21 to induce arthritis. The onset of disease may be confirmed on the day that swelling or erythema may be observed in any paw, typically 4 to 10 days after the second immunization. Each experimental group may be treated seven times, 5 days apart, starting from day 28 after the first immunization, with intraperitoneal injections of saline (200 μI per mouse), TBSV·pLIp1, TBSV·pFADK2, pLIp1+IFA, and pFADK2+IFA (all 50 μg per mouse in 200 μl) or dexamethasone (5 μg per mouse in 200 μl). […] CIA may be assessed using a macroscopic score system based on the visual identification of arthritic limbs.
# IL-1β = experiment: Pro-inflammatory cytokines in sera of CIA Collagen mice (ELISA, day 58): IL-1β; assay type: in vivo; conditions: Dexamethasone oral 1 mg/kg, 20 times between day 28 and 57
# Experimental: Critical administration 124 disclosed herein is further described below. Q5D represents administration 5 days a part. TBSV·pLIp1 and wt TBSV shown in Table 1 may include liquid form that are not sterile and stored in −20° C. TBSV·pLIp1 may be given at the dose of 50 μG/100 μL Male DBA/1J mice (8 weeks; Envigo, Italy) may be used for these studies. Mice may be housed in individual cages (two for each group) and maintained under a 12:12 light-dark cycle at 21° C.±1° C. and 50%±5% humidity. The animals may be acclimated to their environment for 1 week and had ad libitum access to tap water and standard rodent diet. All animal experiments may be complied with regulations in Italy (D.M. 116192), Europe (O.J of E.C. L 358/112/18/1986), and the United States (Animal Welfare Assurance Number A5594-01, Department of Health and Human Services, USA). […] Arthritis was assessed by using qualitative severity score system and hind paw volume (mL) measured by a plethysmometer on day 20, 22, 24, 26, 28, 30, 32, 34, 36, 38, 40, 42, 44, 46 48, 50, 52, 54, 56 and 58. Body weight was recorded on day 0, 6, 13, 16, 18, 20, 22, 24, 26, 28, 30, 32, 34, 36, 38, 40, 42, 44, 46, 50, 52, 54, 56 and 58. […]
smiles,measurement,setting,value
"C[C@@H]1C[C@H]2[C@@H]3CCC4=CC(=O)C=C[C@]4(C)[C@@]3(F)[C@@H](O)C[C@]2(C)[C@@]1(O)C(=O)CO [Dexamethasone, dexamethasone]",TGF-β1,TGF-β1,10385.0 pg/mL
same,"IL-1β, % of reduction vs CIA Collagen",IL-1β,22.74%
